According to patent US6040149A, “Assay for identifying agents which act on the ceramide-activated protein kinase, kinase suppressor of ras, and methods of using said agents” (priority 1997, dated 2000):
Read-outs that look alike come from different tables or passages of the source.

Tests used:
KSR [1] = molecular target: T1, KSR (Mus musculus, UniProt Q61097); assay: KSR autophosphorylation in vitro; assay type: biochemical, mouse (KSR immunoprecipitated from COS-7 cells); parameters: Raf-1 peptides as substrate
T1 sequence (Q61097 1-873): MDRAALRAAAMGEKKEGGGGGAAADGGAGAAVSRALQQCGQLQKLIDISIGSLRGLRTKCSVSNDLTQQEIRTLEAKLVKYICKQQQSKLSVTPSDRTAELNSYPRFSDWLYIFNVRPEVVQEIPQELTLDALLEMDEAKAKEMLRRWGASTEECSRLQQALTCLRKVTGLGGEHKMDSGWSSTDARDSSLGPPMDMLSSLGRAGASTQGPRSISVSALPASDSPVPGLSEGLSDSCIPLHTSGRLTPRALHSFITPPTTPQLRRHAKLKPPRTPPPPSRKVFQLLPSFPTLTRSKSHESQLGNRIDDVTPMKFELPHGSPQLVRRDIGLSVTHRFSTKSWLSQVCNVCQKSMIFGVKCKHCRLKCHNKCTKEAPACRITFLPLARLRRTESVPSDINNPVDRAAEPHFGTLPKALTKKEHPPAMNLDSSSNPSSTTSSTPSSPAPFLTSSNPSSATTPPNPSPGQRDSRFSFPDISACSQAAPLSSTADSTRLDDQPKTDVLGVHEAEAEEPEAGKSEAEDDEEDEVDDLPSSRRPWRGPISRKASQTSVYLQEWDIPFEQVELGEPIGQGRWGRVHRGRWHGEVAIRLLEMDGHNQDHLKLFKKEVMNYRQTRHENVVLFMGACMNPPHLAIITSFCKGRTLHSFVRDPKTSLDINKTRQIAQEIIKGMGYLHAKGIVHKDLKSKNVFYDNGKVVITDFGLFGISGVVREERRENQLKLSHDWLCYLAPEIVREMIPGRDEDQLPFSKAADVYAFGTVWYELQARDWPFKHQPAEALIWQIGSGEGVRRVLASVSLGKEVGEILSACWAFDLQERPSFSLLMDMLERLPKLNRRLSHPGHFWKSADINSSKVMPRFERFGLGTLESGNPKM
Experimental: Phosphorylated KSR was resolved and detected as in FIG. 2A.
KSR was immunoprecipitated as above from 0.8 mg NP-40 lysate protein with 40 μl agarose-conjugated anti-Flag antibody at 4° C. for 4 hrs or overnight. […] The reaction was stopped by addition of Laemmli sample buffer. Samples were resolved by 7.5% sodium dodecyl sulfate-polyacrylamide gel electrophoresis (SDS-PAGE) and autoradiographed.

KSR [2] = molecular target: T1, KSR; assay: KSR activity toward Raf-1 peptides in vitro; assay type: biochemical, mouse (KSR immunoprecipitated from COS-7 cells); parameters: Raf-1 peptides as substrate; settings: 30 nM
Experimental: The wild type peptide contains eight potential phosphorylation sites (shown in bold). Substitution of alanines and glycines for serines and threonines generated one peptide (TTLP-peptide) containing only two potential phosphorylation sites (Thr^268,269) and another peptide (AALP-peptide) with no potential phosphorylation sites.
FIG. 28A--Flag-tagged KSR was immunoprecipitated from 0.2 mg COS-7 lysate, and assayed with TTLP- or AALP-peptides in the presence of 30 nM ceramide (Avanti) or diluent (DMSO). Background counts per minute (cpm) derived from samples incubated with the AALP-peptide which contains no phosphorylation sites were subtracted from all points. Background cpm always represented less than 25% of the untreated total.
FIG. 28B--Flag-tagged KSR immunoprecipitated from 0.2 mg COS-7 lysate was assayed with TTLP- or AALP-peptides in the presence of ceramide or diluent for 45 min as described in FIG. 7A.
FIG. 28C--Flag-tagged KSR was immunoprecipitated from 0.15 mg COS-7 lysate and assayed with TTLP- or AALP-peptides for 20 min in the presence of 30 nM of the indicated lipid second messengers as described in FIG. 28A (AA: arachidonic acid; LPA: lyso phosphatidic acid; PMA: phorbol 12-myristate 13-acetate; DAG: 1,2-diacylglycerol).
KSR-bound beads were incubated with reaction buffer B plus 10 mM MnCl2, 5 μM ATP and [γ-^32 P]ATP at 22° C. for the period of time indicated in the presence of 0.3 mM synthetic Raf-peptide or substrate peptides specific for other Ser/Thr protein kinases. […] (SEQ ID NO.3). Substitution of glycines and alanines for serines and threonines generated one peptide (termed TTLP-peptide) containing only two potential phosphorylation sites at Thr^268,269 (in bold), […] (SEQ ID NO. 24), and another peptide (termed AALP-peptide; SEQ ID No.6) with no potential phosphorylation sites, […] (SEQ ID No.25). The amino acid sequences of substrate peptides specific for other protein kinases (Joseph et al., 1993) are: […] (SEQ ID NO.26) (PKA); […] (SEQ ID NO.27) (S6 kinase); […] (SEQ ID NO.28)(CK II); […] (SEQ ID NO.29) (CaM kinase II); and […] (SEQ ID NO.30) (PKC). […] Substrate peptides for PKA and PKC were from Sigma (St. Louis, Mo.). The reaction was stopped by addition of a stop solution containing 0.5 M ATP in 90% formic acid. The beads were removed by centrifugation at 5000×g for 2 min and the supernatant was loaded on P81 Whatman filter paper. The filter was air dried and washed in 4 mM Na2 H2 P2 O7, 1 mM acetic acid for one hour. The filter was baked at 90° C. for 10 min and quantified by Cerenkov counting using a Beckman LS 5000TD scintillation counter. In some experiments, samples were separated by C18 reverse-phase chromatography on HPLC (Mathias et al., 1991) to verify the results of the filter assay. Virtually identical results were obtained with both methods.

[3] = system: ceramide-activated protein kinase; settings: generation of other lipid second messengers, refs [111, 112]; cited from earlier work
[4] = system: ceramide-activated protein kinase; assay: EGFR peptide phosphorylation in a cell-free system (HL-60 nuclei-free supernate); assay type: biochemical, human (HL-60 cells); settings: GTP and GTP-γ-S 0.25 to 200 μM; sphingomyelinase 1×10^-3 U ml^-1, 5 minutes; phospholipases 40- to 400-fold higher
Experimental: Effect of TNF-α on ceramide-activated protein kinase activity. HL-60 cells were incubated in serum-free medium and homogenized (as in FIG. 9). […] ATP (750 μM, 4000 dpm pmol^-1), and 75 μl of reaction buffer. […] Phosphorylated peptide was first run on a C18 Sep-Pak cartridge, then resolved by C18 reverse-phase HPLC (Waters, Milford, Mass.), with a linear gradient of acetonitrile. The peptide eluted at 30% acetonitrile, as determined by monitoring Cerenkov radiation in 1-ml fractions. Background activity was subtracted from each point. (A) Kinetics of TNF-α (30 nM)-stimulated EGFR peptide phosphorylation. Values (mean) represent data from four experiments. (B) Concentration dependence of EGFR peptide phosphorylation at 5 minutes of stimulation with TNF-α (0.01 to 30 nM). Values (mean) represent data derived from duplicate points in two experiments. The SEM of the values in (A) was 18% and the mean range of values in (B) was 3%.
Effect of phospholipases on ceramide-activated protein kinase activity. Nuclei-free supernates, prepared as in FIG. 9, were first incubated with TNF-α (3 nM) or added directly to reaction mixtures that contained various phospholipases; sphingomyelinase (SMase) (1×10^-3 U ml^-1, S. aureus), phospholipase A2 (PlA2) (3.8×10^-2 and 3.8×10^-1 U ml^-1, Vipera ruselli), phospholipase C (PLC) (3.8×10^-2 U ml^-1, Bacillus cereus) and phospholipase D (PLD) (3.8×10^-2 U ml^-1, Streptomyces chromocuscus). Peptide phosphorylation was measured as in FIG. 10. Control value represents peptide phosphorylation in the absence of phospholipases or TNF-α. Values (mean±SEM) represent data derived from duplicate samples in three experiments. *P<0.001 compared to control.
The effect of TNF-α on ceramide-activated protein kinase activity was assessed. […] For studies assessing the effect of TNFα in broken cell preparations, nuclei-free supernates were incubated under conditions sufficient for stimulation of neutral sphingomyelinase in a reaction mixture that also contained EGFR peptide and γ-^32 P-labeled ATP. Phosphorylated peptide was resolved by high-performance liquid chromatograph (HPLC) and quantified by Cerenkov counting. Kinase activity was calculated from the specific activity of [γ-^32 P] ATP and incorporation of ^32 P into EGFR peptide. Background activity was subtracted from each point. […] TNF-α stimulation of kinase activity was evident by 1 minute and demonstrable for at least 10 minutes. If the initial incubation with TNF-α at 4° C. was omitted and TNF was added directly to the reaction mixture at 22° C., the reaction was delayed. […] TNF-α enhanced kinase activity in a concentration-dependent manner at 5 minutes (FIG. 10B). […] This is similar to the ED50 of 200 pM for stimulation of ceramide-activated protein kinase by TNF-α in intact cells. TNF-α enhanced kinase activity in a total of 20 separate studies.
Control activity reflects several TNF-α-independent protein kinases that are known to phosphorylate EGFR peptide on Thr^669.

Raf-1 = assay: Kinase activity of immunoprecipitated Raf-1 toward MEK1 after HL-60 cell stimulation; assay type: cell-based, human (HL-60 cells)
Experimental: Recovery of MEK1 was monitored by western blot (Bottom Panel). Identical results were obtained with cells stimulated for 5 min with TNF.
Recovery of MEK1 was monitored by western blot (Bottom Panel).
These studies indicate that Raf-1 is a component of the sphingomyelin pathway mediating TNF action.
MEK1 autophosphorylation was for 45 min. An autoradiogram of MEK1 phosphorylation (top panel) and recovery of MEK1 protein by western blot (bottom panel) are shown. For western blot, proteins separated by SDS-PAGE were electrotransferred to an Immobilon PVDF membrane at 12 volts overnight at 4° C. Membranes were then blocked with 2% BSA in TBS [20 mM Tris, pH 7.6, 137 mM NaCl] for 1 hr and washed with TBST (TBS containing 0.2% Tween-20).

In the case of 1,2-diacylglycerol, the “effect on activation of KSR” value (KSR [1]) is listed as “no effect”, the “effect on activation of KSR towards Raf-peptide” value (KSR [2]) is listed as “no effect” and the “effect on kinase activity” value [3] is listed as “failed to enhance kinase activity”.

For `Nc1nc2c(ncn2[C@@H]2O[C@H](COP(=O)(O)OP(=O)(O)OP(=O)(O)O)[C@@H](O)[C@H]2O)c(=O)[nH]1` [GTP, Guanosine triphosphate], the “effect on kinase activity” value [4] was “did not affect kinase activity”.

With `Nc1nc2c(ncn2[C@@H]2O[C@H](COP(=O)(O)OP(=O)(O)OP(O)(O)=S)[C@@H](O)[C@H]2O)c(=O)[nH]1` [GTP-γ-S, guanosine-5'-O-(3-thiotriphosphate)] the “effect on kinase activity” value [4] was “did not affect kinase activity”.

For `CCCCC/C=C\C/C=C\C/C=C\C/C=C\CCCC(=O)O` [arachidonic acid], the “effect on activation of KSR” value (KSR [1]) is listed as “no effect”, the “effect on activation of KSR towards Raf-peptide” value (KSR [2]) is listed as “no effect” and the “effect on kinase activity” value [3] is listed as “failed to enhance kinase activity”.

For “Granulocyte-macrophage colony stimulating factor: induces monocytic differentiation of HL-60 cells”, the “increase of Raf-1 activity” value (Raf-1; GM-CSF 500 pM) was 2.5 fold.

In the case of PDGF, the “increase of Raf-1 activation” value (Raf-1; PDGF 5 nM, after TPA induction of PDGF receptors) is reported as 4 fold.

For insulin: insulin, the “increase of Raf-1 activity” value (Raf-1; insulin 100 nM) was 4 fold.

For lyso-phosphatidic acid, the “effect on activation of KSR” value (KSR [1]) was “no effect” and the “effect on activation of KSR towards Raf-peptide” value (KSR [2]) was “no effect”.

In the case of phosphatidic acid, the “effect on kinase activity” value [3] is listed as “failed to enhance kinase activity”.

For phosphatidylcholine, the “effect on activation of KSR” value (KSR [1]) was “no effect”.

For phosphatidylserine, the “effect on activation of KSR” value (KSR [1]) was “no effect”.
